Reference: patent US7208517B1, “Endothelin antagonists” (Abbott Labortories, priority 1994, dated 2007)

What was measured:
Type in all cases: in vivo, human
[1] = system: male subjects with hormone refractory prostate cancer; assay: Crosslinked N-telopeptide levels of treated subjects; conditions: subjects treated versus placebo
Protocol: (§1) Studies were performed on male subjects with asymptomatic hormone refractory prostate cancer with rising PSA levels and on male subjects with symptomatic hormone refractory prostate cancer with rising PSA levels and pain. Subjects in the phase II studies had castrate levels of testosterone, either due to pharmacologic intervention, via leuprolide (Lupron®) or goserelin (Zoladex®), or via surgical castration. Subjects received ABT-627 or placebo. The following tests were conducted:
(§2) ABT-627 was formulated in 2.5 and 10 mg doses. An oral liquid formulation of ABT-627 was also prepared as follows: 1 mg/ml ABT-627, 50% glycerin, 14% alcohol, and water. Matching placebos were also provided.
Markers of osteoblastic activity were assessed using […]. Bone markers include bone alkaline phosphatase (BAP), deoxypridinoline, and N-telopeptide of Type I collagen. Blood samples were collected prior to dosing on Day 1, Day 42, Day 84, Day 168, and every 28 days after Day 168, with a final collection on the last day of the study.
Cross-linked N-telopeptide levels were determined using the DiaSorin (Stillwater, MN) assay for the quantitative determination of carboxyterminal cross-linked telopeptide of type I collagen (ICTP) in human serum by equilibrium radioimmunoassay (RIA). […] The bound tracer in the pellet was counted with a gamma counter. […]

[2] = system: male subjects with hormone refractory prostate cancer; assay: Chromagranin-A levels in serum of treated subjects; conditions: 2.5 mg/day
Protocol: as §1, §2
The effect of ABT-627 adminstration on Chromagranin-A levels in human serum samples was determined by proprietary assay conducted at the Nichols Institute. The procedure is a two site chemiluminescence assay (ICMA) using one monoclonal antibody conjugated with biotin, another monoclonal antibody labeled with an acridinium ester, and an avidin-coated solid phase. The antibody/Chromagranin-A/antibody complex is bound to the solid phase by the avidin-biotin interaction and unbound materials are removed by washing. The bound, acridinium-labeled material produces light that is detected in a luminometer after addition of triggering agents. The Limit of Detection (LOD) for the assay was 0.07 ng/mL.

[3] = system: male subjects with hormone refractory prostate cancer; assay: Bone scan (bone scan index, skeletal involvement) of treated subjects; conditions: versus placebo
Protocol: as §1, §2
Bone scans were performed with an NDA approved, Tc-99m phosphonate type radiopharmaceutical. This technique uses whole body format (skull to feet) so that anterior and posterior images are presented when using a 510 K-approved gamma camera. […] Each site was evaluated against a confidence score of 1 to 5, where 1 is negative, 2 is probably negative, 3 is equivocal, 4 is probably positive, and 5 is definitely positive. […] In addition, in a blinded study, a reference nuclear medicine physician interpreted the bone scans quantitatively as follows: the percent of involved bone was estimated for each individual bone, and the individual bone involvement was summed to calculate a global percent bone scan index (BSI). […]

[4] = system: male subjects with hormone refractory prostate cancer; assay: Visual Analog Scale (VAS) pain assessment of treated subjects; conditions: independent of the effects of morphine
Protocol: Studies were performed on male subjects with asymptomatic hormone refractory prostate cancer with rising PSA levels and on male subjects with symptomatic hormone refractory prostate cancer with rising PSA levels and pain. Subjects in the phase II studies had castrate levels of testosterone, either due to pharmacologic intervention, via leuprolide (Lupron®) or goserelin (Zoladex®), or via surgical castration. Subjects received ABT-627 or placebo. The following tests were conducted: ABT-627 was formulated in 2.5 and 10 mg doses. An oral liquid formulation of ABT-627 was also prepared as follows: 1 mg/ml ABT-627, 50% glycerin, 14% alcohol, and water. Matching placebos were also provided. […] The log also contained a table on which was recorded all daily pain medication consumed by the patient. […] Clinical personnel who received the logs measured the score by measuring the distance (in mm) from the “no pain” end mark to the point where the subject's line crossed the VAS line. […] The weekly VAS scores were calculated excluding the lowest and highest score for each week and averaging the remaining five scores. […] The duration of the response, defined as the time from baseline to the last weekly assessment for which the responder definition was satisfied, was analyzed using the Kaplan-Meier methodology and logrank test.

## CCCCCN(CCCC)C(=O)CN1C[C@H](c2ccc3c(c2)OCO3)[C@@H](C(=O)O)[C@@H]1c1ccc(OC)cc1 [ABT-627]
[1]
  Crosslinked N-telopeptide levels (AUC, FIG. 4): Crosslinked N-telopeptide levels decreased
[2]
  average change from baseline for Chromagranin-A (AUC, FIG. 8): the average change from baseline for Chromagranin-A was higher
[3]
  proportion of total skeletal involvement by bone scan (FIG. 6): a decrease in the proportion of total skeketal involvement
[4]
  VAS scores, pain (AUC, FIG. 3): VAS scores showed a decrease in pain
